Legend:
Type in all cases: in vivo
VIOAR (Viola arvensis) = assay: greenhouse pre-emergence herbicidal test; settings: 0.125 kg/ha
Excerpt: (§1) The culture containers used were plastic flowerpots containing loamy sand with approximately 3.0% of humus as the substrate. The seeds of the test plants were sown separately for each species.
(§2) For the pre-emergence treatment, the active ingredients, which had been suspended or emulsified in water, were applied directly after sowing by means of finely distributing nozzles. The containers were irrigated gently to promote germination and growth and subsequently covered with transparent plastic hoods until the plants had rooted. This cover caused uniform germination of the test plants, unless this had been impaired by the active ingredients.
(§3) Depending on the species, the plants were kept at 10-25° C. or 20-35° C., respectively.
(§4) The test period extended over 2 to 4 weeks. During this time, the plants were tended, and their response to the individual treatments was evaluated.
(§5) Evaluation was carried out using a scale from 0 to 100. 100 means no emergence of the plants, or complete destruction of at least the aerial moieties, and 0 means no damage, or normal course of growth. A moderate herbicidal activity is given at values of at least 60, a good herbicidal activity is given at values of at least 70, and a very good herbicidal activity is given at values of at least 85.
(§6) The plants used in the greenhouse experiments were of the following species: […]

[1] = system: ABUTH (Abutilon theophrasti); assay: greenhouse post-emergence herbicidal test
Excerpt: as §1
(§7) For the post-emergence treatment, the test plants were first grown to a height of 3 to 15 cm, depending on the plant habit, and only then treated with the active ingredients which had been suspended or emulsified in water. For this purpose, the test plants were either sown directly and grown in the same containers, or they were first grown separately as seedlings and transplanted into the test containers a few days prior to treatment.
as §3, §4, §5, §6

[2] = system: AMARE (Amaranthus retroflexus); assay: greenhouse post-emergence herbicidal test
Excerpt: as §1, §7, §3, §4, §5, §6

[3] = system: AMARE (Amaranthus retroflexus); assay: greenhouse pre-emergence herbicidal test
Excerpt: (§8) The seeds of the test plants were sown separately for each species. For the pre-emergence treatment, the active ingredients, which had been suspended or emulsified in water, were applied directly after sowing by means of finely distributing nozzles. The containers were irrigated gently to promote germination and growth and subsequently covered with transparent plastic hoods until the plants had rooted. This cover caused uniform germination of the test plants, unless this had been impaired by the active ingredients. Depending on the species, the plants were kept at 10-25° C. or 20-35° C., respectively. The test period extended over 2 to 4 weeks. During this time, the plants were tended, and their response to the individual treatments was evaluated. […] A moderate herbicidal activity is given at values of at least 60, a good herbicidal activity is given at values of at least 70, and a very good herbicidal activity is given at values of at least 85. The plants used in the greenhouse experiments were of the following species: [table]

SETFA (Setaria faberi) = assay: greenhouse pre-emergence herbicidal test
Excerpt: as §1, §2, §3, §4, §5, §6

STEME (Stellaria media) = assay: greenhouse pre-emergence herbicidal test
Excerpt: as §1, §2, §3, §4, §5, §6

[4] = system: CAPBP (Capsella bursa-pastoris); assay: greenhouse pre-emergence herbicidal test; settings: CAPBP
Excerpt: as §1, §2, §3, §4, §5, §6

[5] = system: ECHCG (Echinocloa crus-galli); assay: greenhouse pre-emergence herbicidal test
Excerpt: as §1, §2, §3, §4, §5, §6

[6] = system: ABUTH (Abutilon theophrasti); assay: greenhouse pre-emergence herbicidal test
Excerpt: as §8

Compound: CC(F)c1nc(N)nc(Nc2c(F)cc(Br)cc2F)n1 (stereo not shown) [Example 19]
- herbicidal activity (VIOAR (Viola arvensis)): good (a good herbicidal activity is given at values of at least 70)

Compound: CC(C)(F)c1nc(N)nc(Nc2ccc(F)cc2F)n1 [Example 22]
- herbicidal activity (VIOAR (Viola arvensis)): good (a good herbicidal activity is given at values of at least 70)

Compound: CC(C)(F)c1nc(N)nc(Nc2cc(F)cc(F)c2)n1 [Example 25]
- herbicidal activity (VIOAR (Viola arvensis)): very good (a very good herbicidal activity is given at values of at least 85)

Compound: CC(C)(F)c1nc(N)nc(Nc2c(F)cc(F)cc2F)n1 [Example 28]
- herbicidal activity ([1]; 0.125 kg/ha): very good (a very good herbicidal activity is given at values of at least 85)
- herbicidal activity ([2]; 0.125 kg/ha): very good (a very good herbicidal activity is given at values of at least 85)

Compound: CC(C)(F)c1nc(N)nc(Nc2c(F)ccc(F)c2Cl)n1 [Example 36]
- herbicidal activity ([1]; 0.062 kg/ha): very good (a very good herbicidal activity is given at values of at least 85)
- herbicidal activity ([2]; 0.062 kg/ha): very good (a very good herbicidal activity is given at values of at least 85)

Compound: C=C(C)c1nc(N)nc(Nc2c(F)c(F)c(F)c(F)c2F)n1 [Example 53]
- herbicidal activity ([3]; 0.125 kg/ha): very good (a very good herbicidal activity is given at values of at least 85)
- herbicidal activity (SETFA (Setaria faberi); 0.125 kg/ha): good (a good herbicidal activity is given at values of at least 70)

Compound: CC(C)(C)c1nc(N)nc(Nc2c(F)ccc(F)c2F)n1 [Example 80]
- herbicidal activity (STEME (Stellaria media); 125 g/ha): very good (a very good herbicidal activity is given at values of at least 85)
- herbicidal activity ([4]; 125 g/ha): very good (a very good herbicidal activity is given at values of at least 85)
- herbicidal activity ([5]; 125 g/ha): very good (a very good herbicidal activity is given at values of at least 85)

Compound: CCC(CC)c1nc(N)nc(Nc2c(F)c(F)c(F)c(F)c2F)n1 [Example 83]
- herbicidal activity (STEME (Stellaria media); 250 g/ha): very good (a very good herbicidal activity is given at values of at least 85)
- herbicidal activity ([4]; 250 g/ha): very good (a very good herbicidal activity is given at values of at least 85)
- herbicidal activity ([5]; 250 g/ha): very good (a very good herbicidal activity is given at values of at least 85)

Compound: Nc1nc(Nc2c(F)ccc(Cl)c2F)nc(C(F)(F)F)n1 [Example 126]
- herbicidal activity ([1]; 1000 g/ha): good (a good herbicidal activity is given at values of at least 70)
- herbicidal activity ([2]; 1000 g/ha): very good (a very good herbicidal activity is given at values of at least 85)

Compound: Nc1nc(CC2CC2)nc(Nc2c(F)cc(F)cc2F)n1 [Example 141]
- herbicidal activity ([3]; 1000 g/ha): very good (a very good herbicidal activity is given at values of at least 85)
- herbicidal activity (SETFA (Setaria faberi); 1000 g/ha): very good (a very good herbicidal activity is given at values of at least 85)
- herbicidal activity ([5]; 1000 g/ha): good (a good herbicidal activity is given at values of at least 70)

Compound: Nc1nc(Nc2c(F)cc(F)cc2F)nc(C2CCC2)n1 [Example 142]
- herbicidal activity ([6]; 500 g/ha): good (a good herbicidal activity is given at values of at least 70)
- herbicidal activity ([3]; 500 g/ha): very good (a very good herbicidal activity is given at values of at least 85)
- herbicidal activity (SETFA (Setaria faberi); 500 g/ha): good (a good herbicidal activity is given at values of at least 70)

Compound: CC(Cl)(Cl)c1nc(N)nc(Nc2c(F)c(F)c(F)c(F)c2F)n1 [Example 147]
- herbicidal activity ([3]; 250 g/ha): very good (a very good herbicidal activity is given at values of at least 85)
- herbicidal activity (SETFA (Setaria faberi); 250 g/ha): very good (a very good herbicidal activity is given at values of at least 85)
- herbicidal activity ([5]; 250 g/ha): very good (a very good herbicidal activity is given at values of at least 85)

Compound: Nc1nc(Nc2c(F)c(F)cc(F)c2F)nc(C(F)F)n1 [Example 150]
- herbicidal activity ([6]; 500 g/ha): very good (a very good herbicidal activity is given at values of at least 85)
- herbicidal activity ([3]; 500 g/ha): very good (a very good herbicidal activity is given at values of at least 85)
- herbicidal activity (SETFA (Setaria faberi); 500 g/ha): very good (a very good herbicidal activity is given at values of at least 85)

Compound: N#Cc1cccc(F)c1Nc1nc(N)nc(C(F)(F)F)n1 [Example 151]
- herbicidal activity ([1]; 500 g/ha): good (a good herbicidal activity is given at values of at least 70)

Compound: COc1ccc(F)c(F)c1Nc1nc(N)nc(C(F)(F)F)n1 [Example 158]
- herbicidal activity ([1]; 1000 g/ha): very good (a very good herbicidal activity is given at values of at least 85)

Compound: Nc1nc(Nc2c(F)c(F)c(F)c(F)c2F)nc(C2CCC(C(F)(F)F)CC2)n1 (stereo not shown) [Example 165]
- herbicidal activity ([3]; 1000 g/ha): very good (a very good herbicidal activity is given at values of at least 85)
- herbicidal activity (SETFA (Setaria faberi); 1000 g/ha): very good (a very good herbicidal activity is given at values of at least 85)
- herbicidal activity ([5]; 1000 g/ha): very good (a very good herbicidal activity is given at values of at least 85)

Compound: COC1CCC(c2nc(N)nc(Nc3c(F)c(F)c(F)c(F)c3F)n2)CC1 (stereo not shown) [Example 167]
- herbicidal activity ([6]; 500 g/ha): good (a good herbicidal activity is given at values of at least 70)
- herbicidal activity ([3]; 500 g/ha): very good (a very good herbicidal activity is given at values of at least 85)
- herbicidal activity (SETFA (Setaria faberi); 500 g/ha): very good (a very good herbicidal activity is given at values of at least 85)

Compound: CC(C)(C)C1CCC(c2nc(N)nc(Nc3c(F)c(F)c(F)c(F)c3F)n2)CC1 (stereo not shown) [Example 177]
- herbicidal activity ([3]; 500 g/ha): very good (a very good herbicidal activity is given at values of at least 85)
- herbicidal activity (SETFA (Setaria faberi); 500 g/ha): good (a good herbicidal activity is given at values of at least 70)

Compound: CC=C(C)c1nc(N)nc(Nc2c(F)c(F)c(Br)c(F)c2F)n1 [Example 194]
- herbicidal activity (SETFA (Setaria faberi); 500 g/ha): good (a good herbicidal activity is given at values of at least 70)

Compound: CCCCC(C#N)c1nc(N)nc(Nc2c(F)ccc(F)c2F)n1 (stereo not shown) [Example 197]
- herbicidal activity (SETFA (Setaria faberi); 1000 g/ha): good (a good herbicidal activity is given at values of at least 70)

Compound: CCC(C)(Cl)c1nc(N)nc(Nc2c(F)c(F)cc(F)c2F)n1 (stereo not shown) [Example 205]
- herbicidal activity ([3]; 125 g/ha): very good (a very good herbicidal activity is given at values of at least 85)
- herbicidal activity (SETFA (Setaria faberi); 125 g/ha): very good (a very good herbicidal activity is given at values of at least 85)
- herbicidal activity ([5]; 125 g/ha): very good (a very good herbicidal activity is given at values of at least 85)

Compound: Nc1nc(Nc2c(F)ccc(F)c2F)nc(C2CCCC2)n1 [Example 212]
- herbicidal activity ([3]; 500 g/ha): very good (a very good herbicidal activity is given at values of at least 85)
- herbicidal activity (SETFA (Setaria faberi); 500 g/ha): very good (a very good herbicidal activity is given at values of at least 85)
- herbicidal activity ([5]; 500 g/ha): very good (a very good herbicidal activity is given at values of at least 85)

Compound: N#CC1(c2nc(N)nc(Nc3c(F)c(F)cc(F)c3F)n2)CC1 [Example 216]
- herbicidal activity ([6]; 250 g/ha): good (a good herbicidal activity is given at values of at least 70)
- herbicidal activity ([3]; 250 g/ha): very good (a very good herbicidal activity is given at values of at least 85)
- herbicidal activity (SETFA (Setaria faberi); 250 g/ha): good (a good herbicidal activity is given at values of at least 70)

Compound: CC(C)(F)c1nc(N)nc(Nc2c(F)cc([N+](=O)[O-])cc2F)n1 [Example 220]
- herbicidal activity (SETFA (Setaria faberi); 500 g/ha): good (a good herbicidal activity is given at values of at least 70)

Compound: CC(C)(C)C(=O)N(c1nc(N)nc(C(C)(C)C)n1)c1c(F)c(F)cc(F)c1F [Example 286]
- herbicidal activity ([6]; 125 g/ha): very good (a very good herbicidal activity is given at values of at least 85)
- herbicidal activity ([3]; 125 g/ha): very good (a very good herbicidal activity is given at values of at least 85)
- herbicidal activity (SETFA (Setaria faberi); 125 g/ha): very good (a very good herbicidal activity is given at values of at least 85)

Compound: Nc1nc(C2=CCCCC2)nc(N(C(=O)C2=CCCCC2)c2c(F)c(F)c(F)c(F)c2F)n1 [Example 303]
- herbicidal activity ([1]; 500 g/ha): good (a good herbicidal activity is given at values of at least 70)
- herbicidal activity ([2]; 500 g/ha): good (a good herbicidal activity is given at values of at least 70)

Compound: Nc1nc(C2CCCC2)nc(N(C(=O)C2CCCC2)c2c(F)c(F)cc(F)c2F)n1 [Example 304]
- herbicidal activity ([3]; 1000 g/ha): very good (a very good herbicidal activity is given at values of at least 85)
- herbicidal activity (SETFA (Setaria faberi); 1000 g/ha): very good (a very good herbicidal activity is given at values of at least 85)
- herbicidal activity ([5]; 1000 g/ha): very good (a very good herbicidal activity is given at values of at least 85)

Compound: CN(c1nc(N)nc(C(C)(C)F)n1)c1c(F)c(F)c(F)c(F)c1F [Example 307]
- herbicidal activity ([3]; 125 g/ha): very good (a very good herbicidal activity is given at values of at least 85)
- herbicidal activity (SETFA (Setaria faberi); 125 g/ha): very good (a very good herbicidal activity is given at values of at least 85)

— US9549558B2, “Herbicidal azines” (BASF SE, priority 2012, dated 2017)
